Among the data in ChEMBL document CHEMBL1152667, “Synthesis and radiopharmacological investigation of 3-[4'-[(18)F]fluorobenzylidene]indolin-2-one as possible tyrosine kinase inhibitor” (Bioorg Med Chem, 2009) are IC50 values, retold here.

As a reminder, the IC50 is the concentration at which inhibition is half-maximal. Low readings indicate inhibition by little substance, high ones a need for much substance.

Test [1] has as its target Vascular endothelial growth factor receptor 2 (Homo sapiens, UniProt P35968). Put plainly: Inhibition of FLK1.
A short description of a further test: cells. The settings on record: Endothelial cell.

SMILES strings stand for the structures.

Sequence of Vascular endothelial growth factor receptor 2 (P35968 whole entry): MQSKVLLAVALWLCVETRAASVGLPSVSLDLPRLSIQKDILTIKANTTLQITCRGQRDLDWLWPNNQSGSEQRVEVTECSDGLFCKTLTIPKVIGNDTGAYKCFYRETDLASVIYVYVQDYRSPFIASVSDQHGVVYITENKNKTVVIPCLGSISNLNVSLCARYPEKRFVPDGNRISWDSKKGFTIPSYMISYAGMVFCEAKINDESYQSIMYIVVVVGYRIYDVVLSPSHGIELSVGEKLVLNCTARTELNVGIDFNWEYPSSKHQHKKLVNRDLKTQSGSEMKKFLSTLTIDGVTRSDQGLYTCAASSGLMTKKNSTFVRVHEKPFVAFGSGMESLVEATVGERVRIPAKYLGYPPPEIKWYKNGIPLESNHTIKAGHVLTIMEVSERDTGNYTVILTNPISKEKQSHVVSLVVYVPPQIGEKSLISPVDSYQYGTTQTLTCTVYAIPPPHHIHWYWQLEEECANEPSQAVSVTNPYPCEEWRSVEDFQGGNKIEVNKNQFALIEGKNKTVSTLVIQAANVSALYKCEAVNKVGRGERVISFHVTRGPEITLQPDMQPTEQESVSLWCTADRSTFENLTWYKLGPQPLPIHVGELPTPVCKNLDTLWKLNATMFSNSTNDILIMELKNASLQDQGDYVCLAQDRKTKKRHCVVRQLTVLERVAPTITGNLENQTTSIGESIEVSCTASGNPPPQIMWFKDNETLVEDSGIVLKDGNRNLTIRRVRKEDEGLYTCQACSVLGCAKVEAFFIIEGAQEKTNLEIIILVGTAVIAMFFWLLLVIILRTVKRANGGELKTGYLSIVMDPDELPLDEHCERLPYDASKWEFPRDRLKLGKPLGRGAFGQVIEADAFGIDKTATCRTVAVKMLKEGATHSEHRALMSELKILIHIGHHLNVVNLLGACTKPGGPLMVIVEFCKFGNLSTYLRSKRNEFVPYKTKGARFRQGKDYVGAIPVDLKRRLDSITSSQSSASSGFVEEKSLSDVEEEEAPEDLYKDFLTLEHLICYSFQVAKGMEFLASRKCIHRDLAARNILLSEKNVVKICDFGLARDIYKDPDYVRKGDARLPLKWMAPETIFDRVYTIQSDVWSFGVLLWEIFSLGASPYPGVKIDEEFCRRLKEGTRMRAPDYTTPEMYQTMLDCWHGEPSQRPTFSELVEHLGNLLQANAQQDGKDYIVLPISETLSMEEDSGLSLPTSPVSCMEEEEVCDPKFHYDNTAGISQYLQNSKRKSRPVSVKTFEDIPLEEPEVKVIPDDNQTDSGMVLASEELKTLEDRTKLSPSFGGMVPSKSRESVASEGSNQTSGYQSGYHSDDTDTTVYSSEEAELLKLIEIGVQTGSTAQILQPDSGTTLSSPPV

`O=C1Nc2ccccc2/C1=C/c1ccc(F)cc1`: the 50% inhibitory concentration (IC50) was determined as 9.6 µM in test [1] and 5.1 µM in “cells”.

Compound `Cc1cc(C)c(/C=C2\C(=O)Nc3ccccc32)[nH]1` [SEMAXANIB] displayed an IC50 in “cells” below 0.8 µM.
